# Results: patent publication US20120283200A1, “PHARMACEUTICAL COMPOSITION AND METHOD FOR PREVENTING OR TREATING CHRONIC HEART DISEASE” (CHINA MEDICAL UNIVERSITY, priority 2011, published 2012)
# System: H9c2 cells
# Experiment: Cell viability assay (MTT) of H9c2 cells in hypoxia-reoxygenation model
# Format: cell-based, rat
# Conditions: added 1 hour before hypoxia, 6 h hypoxia, 12 h reoxygenation, compounds 1, 3, 10 μM, metformin 10, 30, 100 μM, compared to the sham group, FIG. 1(b)
# Experimental: Cell Viability Assay of H9c2 Cell in Hypoxia-Reoxygenation Model
# Rat embryonic ventricular myoblast cell line, H9c2, are cultured in a DMEM medium supplemented with 10% fetal bovine serum (FBS), penicillin (10 U/mL), streptomycin (100 μg/mL) and amphotericin B (0.25 μg/mL) in 37° C. humidified 5% carbon dioxide (CO2) incubator. When the plate becomes confluent, maintain the culture at a 1:4 subculture split.
# (1) H9c2 cells are cultured on a 60 mm plate (6×10^5 cells/plate) containing 10% FBS DMEM (high glucose DMEM) for 24 hours. The medium is replaced with DMEM with no serum for the starvation. At the same time, a medium containing DMEM with no glucose and no serum is adjusted to pH 6.8 and placed into a hypoxia chamber (95% N2 and 5% CO2, 37° C.) where the oxygen partial pressure is controlled to be less than 2% for a pretreatment for 24 hours. […]
# Please refer to FIGS. 1(a) and 1(b), which are diagrams showing the effects of the compounds in the present invention and metformin on the viability of cells treated by the hypoxia-reoxygenation. The results are represented by the absorbance (OD) values of the hypoxia-reoxygenation treated group (IR OD)/the OD values of the control group (control OD) in FIG. 1(a) and the OD values of the drug-treated group (drug OD)/the OD values of the sham group (sham OD).
smiles,measurement,value
"COc1cc(/C=C/C(=O)OCC2OC(Oc3ccc(C[C@H]4CO[C@H](c5ccc(O)c(OC)c5)[C@H]4CO)cc3OC)C(O)C(O)C2O)ccc1O (stereo partly drawn) [RS-47, lariciresinol 4′-(6″-O-feruloyl-β-D-glucopyranoside)]",viability of the cells treated with the hypoxia-reoxygenation (drug OD/sham OD),significantly increased
CN(C)C(=N)N=C(N)N [metformin],viability of the cells treated with the hypoxia-reoxygenation (drug OD/sham OD),significantly increased
